From publication PMC7878868, “Mechanisms of feedback inhibition and sequential firing of active sites in plant aspartate transcarbamoylase” (Nature Communications, 2021)
Where a chain is given by its changes, count along the chain named. Several values for one entry are separate records, joined by “and”; a condition that tells them apart may be missing. Identical values can stand only once. Like-named read-outs stand apart in the source and are kept apart here.

What was measured:
atATC WT = biological target: T1, atATC WT (Arabidopsis thaliana, UniProt P49077); experiment: Colorimetric ATC activity assay, atATC WT; format: biochemical; conditions: for Activity WT: 10 mM Asp
T1 construct: 2.6 kDa fusion tag (modified pET28a); made in house; host or cells: E. coli BLR(DE3)-pLysS
T1 sequence (P49077 82-390): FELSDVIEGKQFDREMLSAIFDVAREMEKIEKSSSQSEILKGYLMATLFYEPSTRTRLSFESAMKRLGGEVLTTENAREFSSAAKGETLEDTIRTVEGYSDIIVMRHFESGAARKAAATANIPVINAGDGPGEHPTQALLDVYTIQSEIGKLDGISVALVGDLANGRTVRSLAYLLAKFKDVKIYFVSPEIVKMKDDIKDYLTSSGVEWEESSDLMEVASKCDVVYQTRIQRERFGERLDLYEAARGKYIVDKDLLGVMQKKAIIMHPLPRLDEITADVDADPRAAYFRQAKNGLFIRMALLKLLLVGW
Method: (§1) Activity was assayed by a colorimetric method[64] adapted to a 96-well plate format. […] Reagent B is light sensitive and was stored at 4 °C in the dark. The color reagents were gently mixed and stored at 4 °C in the dark until added to the sample. Reaction tubes were closed, boiled at 95 °C for 15 min, and kept in the dark for 30 min before measuring the absorbance at 450 nm in a Tecan infinite m200 microplate reader (Tecan). […] Data analysis was done with GraphPad. […] Protein concentration in the assay was 0.3 µM (0.01 mg ml^−1) both for WT and F161A.

atATC-F161A [1] = biological target: T2, atATC-F161A (Arabidopsis thaliana, UniProt P49077, F161A); experiment: Colorimetric ATC activity assay, atATC F161A; format: biochemical; conditions: for Activity F161A: 10 mM Asp
T2 construct: 2.6 kDa fusion tag (modified pET28a); made in house; host or cells: E. coli BLR(DE3)-pLysS
T2 sequence (P49077 82-390 F161A): T1 sequence (P49077 82-390) with F80A
Method: as §1

[2] = biological target: T3, atATC (Arabidopsis ATC aa 82–390) WT (Arabidopsis thaliana, UniProt P49077); experiment: Isothermal titration calorimetry (ITC), atATC WT; format: binding; conditions: ITC; for Kd: 25 °C
T3 construct: 2.6 kDa fusion tag (modified pET28a); made in house; host or cells: E. coli BLR(DE3)-pLysS
T3 sequence (P49077 82-390): T1 sequence (P49077 82-390)
Method: (§2) Experiments were performed in an Auto-iTC200 calorimeter (MicroCal, Malvern-Panalytical) at 25 °C with a 0.2 ml reaction cell and 30–40 µM protein solution (in protomer units) in the cell. […] All solutions were in GF buffer and degassed and mixed in the cell by stirring at 750 rpm. Data analysis was performed with Origin 7 (OriginLab) using a general three-site cooperative and a non-cooperative binding model, restricted to one or two ligand binding sites when convenient[24],[62],[63]. Non-linear least-squares regression analysis was employed to estimate dissociation constants for the interaction of the different ligands with ATC.

atATC WT:PALA = biological target: T4, atATC WT:PALA (Arabidopsis thaliana, UniProt P49077); experiment: ITC, atATC WT prebound to PALA (WT:PALA); format: binding; conditions: for N, number of binding sites per protein trimer according to the ligand binding model / -TΔS Site 2 / ΔG Site 2 / ΔH Site 2 / -TΔS Site 3 / ΔG Site 3 / ΔH Site 3: ITC, protein prebound to PALA; for Kd: read-out: KD Site 2
T4 construct: 2.6 kDa fusion tag (modified pET28a); made in house; host or cells: E. coli BLR(DE3)-pLysS
T4 sequence (P49077 82-390): T1 sequence (P49077 82-390)
Method: as §2

atATC-F161A [3] = biological target: T2, atATC-F161A; experiment: biochemical; format: binding
Method: as §2

`N[C@@H](CC(=O)O)C(=O)O` [Asp, aspartate] was tested, and the “K0.5 Asp” value (atATC WT; WT, Asp variable, 5 mM CP) was 0.94 mM and 0.94 ± 0.10 mM and the “K0.5 Asp” value (atATC-F161A [1]; F161A, Asp variable, 5 mM CP) was 3.20 ± 1.03 mM.
For `NC(=O)OP(=O)(O)O` [CP, carbamoyl phosphate], the “N, number of binding sites per protein trimer according to the ligand binding model” value [2] was 3, the Kd ([2]; site 1, read-out: KD Site 1) was 80000 nM and the Kd ([2]; site 2, read-out: KD Site 2) was 80000 nM. For the same molecule, the Kd ([2]; site 3, read-out: KD Site 3) was 80000 nM, the “-TΔS Site 1” value [2] was -2.6 kcal/mol and the “ΔG Site 1” value [2] was -5.6 kcal/mol. For the same molecule, the “ΔH Site 1” value [2] was -3.0 kcal/mol, the “-TΔS Site 2” value [2] was -2.6 kcal/mol and the “ΔG Site 2” value [2] was -5.6 kcal/mol. The “ΔH Site 2” value [2] was -3.0 kcal/mol, the “-TΔS Site 3” value ([2]; site 3) was -2.6 kcal/mol and the “ΔG Site 3” value ([2]; site 3) was -5.6 kcal/mol. The “N, number of binding sites per protein trimer according to the ligand binding model” value (atATC WT:PALA) was 2, the “-TΔS Site 2” value (atATC WT:PALA) was 0.4 kcal/mol and the “ΔG Site 2” value (atATC WT:PALA) was -5.3 kcal/mol. For the same molecule, the “ΔH Site 2” value (atATC WT:PALA) was -5.7 kcal/mol, the “-TΔS Site 3” value (atATC WT:PALA) was 0.4 kcal/mol and the “ΔG Site 3” value (atATC WT:PALA) was -5.3 kcal/mol. The “ΔH Site 3” value (atATC WT:PALA) was -5.7 kcal/mol, the Kd (atATC WT:PALA) was 140000 nM and the “N, number of binding sites per protein trimer according to the ligand binding model” value (atATC-F161A [3]; ITC, F161A) was 3. For the same molecule, the “fold higher affinity of F161A than WT” value (atATC-F161A [3]; ITC, F161A versus WT) was ~ 100 fold, the “-TΔS Site 1” value (atATC-F161A [3]; ITC, F161A, site 1) was -2.4 kcal/mol and the “ΔG Site 1” value (atATC-F161A [3]; ITC, F161A, site 1) was -8.4 kcal/mol. The “ΔH Site 1” value (atATC-F161A [3]; ITC, F161A, site 1) was -6.0 kcal/mol, the “-TΔS Site 2” value (atATC-F161A [3]; ITC, F161A, site 2) was -2.4 kcal/mol and the “ΔG Site 2” value (atATC-F161A [3]; ITC, F161A, site 2) was -8.4 kcal/mol. For the same molecule, the “ΔH Site 2” value (atATC-F161A [3]; ITC, F161A, site 2) was -6.0 kcal/mol, the “-TΔS Site 3” value (atATC-F161A [3]; ITC, F161A, site 3) was -2.4 kcal/mol and the “ΔG Site 3” value (atATC-F161A [3]; ITC, F161A, site 3) was -8.4 kcal/mol. For the same molecule, the “ΔH Site 3” value (atATC-F161A [3]; ITC, F161A, site 3) was -6.0 kcal/mol, the Kd (atATC-F161A [3]; KD Site 1, ITC, F161A, site 1) was 730 nM and the Kd (atATC-F161A [3]; KD Site 2, ITC, F161A, site 2) was 730 nM. For the same molecule, the Kd (atATC-F161A [3]; KD Site 3, ITC, F161A, site 3) was 730 nM, the Kd (atATC-F161A [3]; KD, ITC, F161A) was 700 nM and the “Hill-coefficient h of CP initial-rate plot” value (atATC WT; WT, CP as variable ligand, in the presence of UMP) was 2.2.
With `O=c1ccn([C@@H]2O[C@H](COP(=O)(O)O)[C@@H](O)[C@H]2O)c(=O)[nH]1` [UMP, uridine 5-monophosphate] the “N, number of binding sites per protein trimer according to the ligand binding model” value [2] was 3, the “fold higher affinity for UMP than for CP” value [2] was ~400 fold and the “fold higher affinity for UMP than for the transition-state analog (PALA)” value [2] was 3 fold. The Kd ([2]; site 1, read-out: KD Site 1) was 210 nM and 200 nM, the Kd ([2]; site 2, read-out: KD Site 2) was 2300 nM and the Kd ([2]; site 3, read-out: KD Site 3) was 1600 nM. The “fold reduction of the affinity of the other subunits after binding to the first site” value ([2]; negative cooperativity) was 10 fold, the “-TΔS Site 1” value [2] was -6.3 kcal/mol and the “ΔG Site 1” value [2] was -9.1 kcal/mol. The “ΔH Site 1” value [2] was -2.8 kcal/mol, the “-TΔS Site 2” value [2] was -8.9 kcal/mol and the “ΔG Site 2” value [2] was -7.7 kcal/mol. For the same molecule, the “ΔH Site 2” value [2] was 1.2 kcal/mol, the “-TΔS Site 3” value ([2]; site 3) was -7.4 kcal/mol and the “ΔG Site 3” value ([2]; site 3) was -7.9 kcal/mol. The “ΔH Site 3” value ([2]; site 3) was -0.5 kcal/mol, the “N, number of binding sites per protein trimer according to the ligand binding model” value (atATC WT:PALA) was 2 and the “-TΔS Site 2” value (atATC WT:PALA) was -8.5 kcal/mol. The “ΔG Site 2” value (atATC WT:PALA) was -8.1 kcal/mol, the “ΔH Site 2” value (atATC WT:PALA) was 0.4 kcal/mol and the “-TΔS Site 3” value (atATC WT:PALA) was -8.5 kcal/mol. The “ΔG Site 3” value (atATC WT:PALA) was -8.1 kcal/mol, the “ΔH Site 3” value (atATC WT:PALA) was 0.4 kcal/mol and the Kd (atATC WT:PALA) was 1200 nM. The “binding detected by ITC” value (atATC-F161A [3]; F161A, 70 µM UMP at most, 30-40 µM protein) was “failed to detect the binding”, the “Activity WT” value (atATC WT; 0.1 mM UMP, [CP] 0.31 mM) was 4.11 nmol / min μg and 7.63 nmol / min μg and 5.39 nmol / min μg and the “Activity WT” value (atATC WT; 0.1 mM UMP, [CP] 1.25 mM) was 41.20 nmol / min μg and 48.03 nmol / min μg and 40.64 nmol / min μg. The “Activity WT” value (atATC WT; 0.1 mM UMP, [CP] 2.50 mM) was 66.92 nmol / min μg and 70.05 nmol / min μg and 71.44 nmol / min μg, the “Activity WT” value (atATC WT; 0.1 mM UMP, [CP] 3.00 mM) was 72.17 nmol / min μg and 74.13 nmol / min μg and 71.50 nmol / min μg and the “Activity WT” value (atATC WT; 0.1 mM UMP, [CP] 4.00 mM) was 77.07 nmol / min μg and 76.02 nmol / min μg and 75.78 nmol / min μg. For the same molecule, the “Activity WT” value (atATC WT; 0.1 mM UMP, [CP] 5.00 mM) was 76.47 nmol / min μg and 78.06 nmol / min μg and 76.19 nmol / min μg, the “Activity WT” value (atATC WT; 0.4 mM UMP, [CP] 1.25 mM) was 9.87 nmol / min μg and 11.15 nmol / min μg and 12.99 nmol / min μg and the “Activity WT” value (atATC WT; 0.4 mM UMP, [CP] 2.50 mM) was 28.61 nmol / min μg and 31.67 nmol / min μg and 35.52 nmol / min μg. The “Activity WT” value (atATC WT; 0.4 mM UMP, [CP] 3.00 mM) was 41.63 nmol / min μg and 37.33 nmol / min μg and 40.36 nmol / min μg, the “Activity WT” value (atATC WT; 0.4 mM UMP, [CP] 4.00 mM) was 48.76 nmol / min μg and 50.91 nmol / min μg and 53.68 nmol / min μg and the “Activity WT” value (atATC WT; 0.4 mM UMP, [CP] 5.00 mM) was 58.15 nmol / min μg and 59.40 nmol / min μg and 57.60 nmol / min μg. The “Activity F161A” value (atATC-F161A [1]; 0.2 mM UMP, [CP] 0.31 mM) was 31.06 nmol / min μg and 26.77 nmol / min μg and 21.39 nmol / min μg, the “Activity F161A” value (atATC-F161A [1]; 0.2 mM UMP, [CP] 0.63 mM) was 62.38 nmol / min μg and 46.00 nmol / min μg and 48.44 nmol / min μg and the “Activity F161A” value (atATC-F161A [1]; 0.2 mM UMP, [CP] 1.25 mM) was 61.36 nmol / min μg and 58.95 nmol / min μg and 63.80 nmol / min μg. For the same molecule, the “Activity F161A” value (atATC-F161A [1]; 0.2 mM UMP, [CP] 2.50 mM) was 64.72 nmol / min μg and 56.89 nmol / min μg and 56.14 nmol / min μg, the “Activity F161A” value (atATC-F161A [1]; 0.4 mM UMP, [CP] 0.31 mM) was 27.07 nmol / min μg and 21.22 nmol / min μg and 30.75 nmol / min μg and the “Activity F161A” value (atATC-F161A [1]; 0.4 mM UMP, [CP] 0.63 mM) was 50.59 nmol / min μg and 53.67 nmol / min μg and 49.88 nmol / min μg. For the same molecule, the “Activity F161A” value (atATC-F161A [1]; 0.4 mM UMP, [CP] 1.25 mM) was 68.18 nmol / min μg and 58.61 nmol / min μg and 62.41 nmol / min μg, the “Activity F161A” value (atATC-F161A [1]; 0.4 mM UMP, [CP] 2.50 mM) was 55.88 nmol / min μg and 59.00 nmol / min μg and 63.38 nmol / min μg and the “inhibition of enzyme activity by UMP” value (atATC-F161A [1]; F161A) was “not inhibited”.
